# Results reported in ChEMBL document CHEMBL1201862, “PubChem BioAssay data set” (2004).
#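 Dose response: 5 concentrations. Exposure: 48 h. Format: 96-well plates. Endpoint: linear interpolation; highest concentration if not reached. GI50 = concentration required for 50% inhibition of growth.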 The source made the active and inactive calls. Cut-off read from the data, not from the text of the source: active = GI50 up to about 1.1 µM and inactive = higher.
# Experiments:
# Test in all cases: growth of human tumour cells (NCI), 48 h
# SW-620 = tested on: SW-620
# UACC-62 = tested on: UACC-62
# SN12C = tested on: SN12C
# SF-539 = tested on: SF-539
# MDA-N = tested on: MDA-N
# SK-MEL-5 = tested on: SK-MEL-5
# LOX IMVI = tested on: LOX IMVI
# NCI/ADR-RES = tested on: NCI/ADR-RES
# SNB-19 = tested on: SNB-19
# NCI-H23 = tested on: NCI-H23
# U-251 = tested on: U-251
# UO-31 = tested on: UO-31
# HCT-116 = tested on: HCT-116
# NCI-H522 = tested on: NCI-H522
# KM12 = tested on: KM12
# SF-268 = tested on: SF-268
# SF-295 = tested on: SF-295
# CCRF-CEM = tested on: CCRF-CEM
# Hs-578T = tested on: Hs-578T
# HCC 2998 = tested on: HCC 2998
Structure (SMILES),GI50 (SW-620),GI50 (UACC-62),GI50 (SN12C),GI50 (SF-539),GI50 (MDA-N),GI50 (SK-MEL-5),GI50 (LOX IMVI),GI50 (NCI/ADR-RES),GI50 (SNB-19),GI50 (NCI-H23),GI50 (U-251),GI50 (UO-31),GI50 (HCT-116),GI50 (NCI-H522),GI50 (KM12),GI50 (SF-268),GI50 (SF-295),GI50 (CCRF-CEM),GI50 (Hs-578T),GI50 (HCC 2998)
O=[N+]([O-])c1cc(Cc2cc([N+](=O)[O-])c3cccnc3c2O)c(O)c2ncccc12,5.94 µM (inactive),9.48 µM (inactive),4.55 µM (inactive),10.6 µM (inactive),10.6 µM (inactive),6.79 µM (inactive),3.91 µM (inactive),3.6 µM (inactive),6.78 µM (inactive),9.48 µM (inactive),3.91 µM (inactive),4 µM (inactive),3.35 µM (inactive),3.51 µM (inactive),6.71 µM (inactive),3.52 µM (inactive),6.15 µM (inactive),1.77 µM (inactive),9.51 µM (inactive),–
Cc1nc2c(ccc3[nH]c4ccccc4c32)s1,19.7 µM (inactive),18.4 µM (inactive),24 µM (inactive),26 µM (inactive),31.1 µM (inactive),15.2 µM (inactive),–,34.8 µM (inactive),37.8 µM (inactive),30.2 µM (inactive),20.5 µM (inactive),26.2 µM (inactive),17.4 µM (inactive),15.9 µM (inactive),25.5 µM (inactive),29.2 µM (inactive),–,18.8 µM (inactive),16.3 µM (inactive),15.3 µM (inactive)
CCOC(=O)/C(C#N)=C(/NNc1ccccc1)c1ccncc1C(=O)O,3.27 µM (inactive),5.15 µM (inactive),> 100 µM (inactive),24.7 µM (inactive),> 40.8 µM (inactive),9.82 µM (inactive),2.81 µM (inactive),–,> 100 µM (inactive),> 100 µM (inactive),> 100 µM (inactive),4.49 µM (inactive),> 100 µM (inactive),> 100 µM (inactive),3.4 µM (inactive),> 100 µM (inactive),5.47 µM (inactive),> 38.2 µM (inactive),> 100 µM (inactive),> 22.4 µM (inactive)
Oc1ccc2c(c1)OCC(O)(c1ccccc1O)C2 (stereo not drawn),> 100 µM (inactive),> 100 µM (inactive),> 100 µM (inactive),> 100 µM (inactive),> 100 µM (inactive),> 100 µM (inactive),> 100 µM (inactive),> 100 µM (inactive),> 100 µM (inactive),> 100 µM (inactive),> 100 µM (inactive),> 100 µM (inactive),> 100 µM (inactive),–,> 100 µM (inactive),> 100 µM (inactive),> 100 µM (inactive),> 100 µM (inactive),97.5 µM (inactive),> 100 µM (inactive)
O=C(NNC(=S)Nc1cccc(Cl)c1)c1cc(-c2ccccc2)nc2ccccc12,14.6 µM (inactive),13.4 µM (inactive),14.7 µM (inactive),15.1 µM (inactive),18.3 µM (inactive),16.9 µM (inactive),–,20.4 µM (inactive),17 µM (inactive),13.8 µM (inactive),12.3 µM (inactive),15.1 µM (inactive),15.4 µM (inactive),14.5 µM (inactive),18.5 µM (inactive),17 µM (inactive),11.7 µM (inactive),10.2 µM (inactive),19.6 µM (inactive),12.6 µM (inactive)
CN(C)C1=Nc2ccccc2C(=S)N2CSCC12 (stereo not drawn),34.8 µM (inactive),75.5 µM (inactive),84.5 µM (inactive),–,39.2 µM (inactive),> 100 µM (inactive),43.3 µM (inactive),73.8 µM (inactive),> 100 µM (inactive),–,35.6 µM (inactive),> 100 µM (inactive),> 100 µM (inactive),14.6 µM (inactive),> 100 µM (inactive),> 100 µM (inactive),> 100 µM (inactive),16.4 µM (inactive),77.3 µM (inactive),> 100 µM (inactive)
CO[P@@]1(=O)O[C@@H](c2ccccc2)[C@H](O)[C@@]1(O)c1ccccc1,> 100 µM (inactive),> 100 µM (inactive),> 100 µM (inactive),> 100 µM (inactive),> 100 µM (inactive),> 100 µM (inactive),> 100 µM (inactive),> 100 µM (inactive),> 100 µM (inactive),> 100 µM (inactive),> 100 µM (inactive),> 100 µM (inactive),> 100 µM (inactive),> 100 µM (inactive),> 100 µM (inactive),> 100 µM (inactive),> 100 µM (inactive),> 100 µM (inactive),91.8 µM (inactive),–
CSc1c(C#N)c2n(c3ccccc3[n+]2C)c2ncccc12,20.2 µM (inactive),17.6 µM (inactive),21.2 µM (inactive),–,21.2 µM (inactive),12.9 µM (inactive),14.4 µM (inactive),28.4 µM (inactive),32.6 µM (inactive),21.5 µM (inactive),24 µM (inactive),16.1 µM (inactive),24.2 µM (inactive),19.5 µM (inactive),22 µM (inactive),29.4 µM (inactive),18.9 µM (inactive),24.2 µM (inactive),36.7 µM (inactive),30.1 µM (inactive)
Nc1c(/C=C/c2cc3cc(C4=NCCN4)ccc3o2)[nH]c2cc(C3=NCCN3)ccc12,34.4 µM (inactive),38 µM (inactive),33.2 µM (inactive),40 µM (inactive),37.8 µM (inactive),30.8 µM (inactive),38.8 µM (inactive),76.2 µM (inactive),66.2 µM (inactive),60.7 µM (inactive),38.3 µM (inactive),40.6 µM (inactive),29.4 µM (inactive),45.9 µM (inactive),34.4 µM (inactive),46.7 µM (inactive),34.3 µM (inactive),–,> 100 µM (inactive),32.4 µM (inactive)
Cc1cc(S(=O)(=O)Nc2nc3cc(-c4ccc(Cl)cc4)sc3c(=O)n2N)c(S)cc1Cl,39.4 µM (inactive),31.7 µM (inactive),50.6 µM (inactive),–,53.8 µM (inactive),51.1 µM (inactive),45.4 µM (inactive),52.4 µM (inactive),80.2 µM (inactive),59.8 µM (inactive),43.4 µM (inactive),44.4 µM (inactive),40.3 µM (inactive),62.4 µM (inactive),34.2 µM (inactive),86.3 µM (inactive),33.3 µM (inactive),27.2 µM (inactive),> 100 µM (inactive),94.4 µM (inactive)
CCCCCCCCCCOC1C(C(O)CNCCCN(C)C)OC2OC3(CCCCC3)OC21 (stereo not drawn),1.74 µM (inactive),2.79 µM (inactive),2.33 µM (inactive),–,1.96 µM (inactive),1.89 µM (inactive),1.09 µM (active),3.31 µM (inactive),1.75 µM (inactive),1.48 µM (inactive),1.84 µM (inactive),2.37 µM (inactive),1.99 µM (inactive),1.82 µM (inactive),1.51 µM (inactive),2.17 µM (inactive),1.86 µM (inactive),1.71 µM (inactive),3.17 µM (inactive),2.57 µM (inactive)
c1cc(-c2ncc(-c3ccc4c(c3)CCCO4)o2)ccn1,–,15.6 µM (inactive),25.8 µM (inactive),9.38 µM (inactive),2.48 µM (inactive),9.2 µM (inactive),8.41 µM (inactive),3.94 µM (inactive),8.79 µM (inactive),14.7 µM (inactive),11.2 µM (inactive),23.2 µM (inactive),10.7 µM (inactive),3.78 µM (inactive),–,19.3 µM (inactive),16.6 µM (inactive),4.83 µM (inactive),17.4 µM (inactive),–
CC(C)(Cl)C(Br)CCC(C)(Cl)C(Br)CBr (stereo not drawn),27.5 µM (inactive),38.2 µM (inactive),22.1 µM (inactive),24.5 µM (inactive),31 µM (inactive),18.2 µM (inactive),–,31.7 µM (inactive),39.4 µM (inactive),20.7 µM (inactive),24.1 µM (inactive),31.9 µM (inactive),18.8 µM (inactive),16.3 µM (inactive),–,37.2 µM (inactive),20.2 µM (inactive),18.8 µM (inactive),35.7 µM (inactive),38.1 µM (inactive)
CCOC(=O)CCCN,> 100 µM (inactive),–,> 100 µM (inactive),–,> 100 µM (inactive),> 100 µM (inactive),> 100 µM (inactive),> 100 µM (inactive),> 100 µM (inactive),> 100 µM (inactive),> 100 µM (inactive),> 100 µM (inactive),> 100 µM (inactive),> 100 µM (inactive),> 100 µM (inactive),> 100 µM (inactive),> 100 µM (inactive),> 100 µM (inactive),> 100 µM (inactive),> 100 µM (inactive)
COc1cc(S(=O)(=O)Nc2ccc(-c3csc(N4C(=O)C(C)SC4c4ccccc4O)n3)cc2)ccc1Cl (stereo not drawn),34.8 µM (inactive),31 µM (inactive),40.9 µM (inactive),34.8 µM (inactive),28.6 µM (inactive),32.1 µM (inactive),29.9 µM (inactive),> 100 µM (inactive),> 100 µM (inactive),30.1 µM (inactive),–,38.6 µM (inactive),30.1 µM (inactive),18.3 µM (inactive),29.7 µM (inactive),21.3 µM (inactive),59.3 µM (inactive),25.9 µM (inactive),31.2 µM (inactive),–
